US9187472B2 (AbbVie Inc., priority 2012, dated 2015)

Key:
[1] = target: NAMPT (human, recombinant, C-terminally His-tagged) (Homo sapiens, UniProt P43490); assay: Time-Resolved Fluorescence Resonance Energy Transfer (TR-FRET) Binding Assay of NAMPT; conditions: without substrates; 6.8 nM NAMPT, 200 nM probe, 3 hours equilibration
Summary of the method: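 11-pt half-log compound series; final 6.8 nM NAMPT, 200 nM OG488 nicotinamide-competitive probe, 1 nM Tb-anti-His Ab, 2% DMSO, HEPES pH 7.5/NaCl/MgCl2/DTT/glycerol buffer. 3 h RT equilibration. Em520/Em495 ratio (Ex 337 nm), control-normalized, 4-parameter fit → IC50.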

NAMPT = NAMPT (Homo sapiens, UniProt P43490); assay: TR-FRET Binding Assay of NAMPT with PRPP; conditions: with 200 μM PRPP and 2.5 mM ATP; 2 nM NAMPT, 2 nM probe, 16 hours equilibration
Summary of the method: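 TR-FRET probe-displacement binding with 2 nM NAMPT, 2 nM probe and 1 nM Tb-anti-His antibody, run in the presence of 200 μM PRPP and 2.5 mM ATP at 2% DMSO. Equilibrated 16 hours before reading so test compounds could undergo enzymatic modification.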

PC3 cells = assay: NAMPT Cell Proliferation Assay; assay type: cell-based; conditions: Homo sapiens, PC-3, 120 h, 5 days incubation, cell viability by Cell Titer Glo
Summary of the method: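 Cell Titer Glo viability after 5-day exposure (37° C, 5% CO2); PC3, 500 cells/well, RPMI + 10% heat-inactivated FBS, overnight attachment before dosing. Dose range 10 μM to 1×10^−5 μM, 10-fold steps. IC50 = sigmoidal fit of % inhibition.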

Chain of NAMPT (P43490 whole entry): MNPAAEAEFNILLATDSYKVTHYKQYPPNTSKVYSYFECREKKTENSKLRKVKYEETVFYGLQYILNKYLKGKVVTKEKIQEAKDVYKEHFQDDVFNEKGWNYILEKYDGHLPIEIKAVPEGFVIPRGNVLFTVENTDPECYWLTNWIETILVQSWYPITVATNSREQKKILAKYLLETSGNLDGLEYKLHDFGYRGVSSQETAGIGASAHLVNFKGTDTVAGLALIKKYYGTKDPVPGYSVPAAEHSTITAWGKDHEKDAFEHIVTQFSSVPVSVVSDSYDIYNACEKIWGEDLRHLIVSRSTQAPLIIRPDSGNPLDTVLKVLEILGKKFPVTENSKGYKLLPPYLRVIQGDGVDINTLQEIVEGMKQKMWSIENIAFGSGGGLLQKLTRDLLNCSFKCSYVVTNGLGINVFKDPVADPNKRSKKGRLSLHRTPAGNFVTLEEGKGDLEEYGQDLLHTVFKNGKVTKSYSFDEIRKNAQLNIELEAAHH
Chain of NAMPT (human, recombinant, C-terminally His-tagged) (P43490 whole entry): as above

Row | IC50 [1] | IC50 (NAMPT) | IC50 (PC3 cells) | Compound
1 | 2430 nM | 0.197 nM | 365 nM | O=C(NCc1ccn2ccnc2c1)c1ccc(OC2CCN(C(=O)[C@@H]3CCCO3)CC2)cc1 [Example 419, N-(imidazo[1,2-a]pyridin-7-ylmethyl)-4-({1-[(2S)-tetrahydrofuran-2-ylcarbonyl]piperidin-4-yl}oxy)benzamide]
2 | 2710 nM | 0.226 nM | 147 nM | O=C(NCc1ccn2ccnc2c1)c1ccc(OC2CCN(C(=O)C3CCOCC3)CC2)cc1 [Example 420, N-(imidazo[1,2-a]pyridin-7-ylmethyl)-4-{[1-(tetrahydro-2H-pyran-4-ylcarbonyl)piperidin-4-yl]oxy}benzamide]
3 | 2450 nM | 0.271 nM | 317 nM | O=C(NCc1ccn2ccnc2c1)c1ccc(OC2CCN(C(=O)C3COCCO3)CC2)cc1 (stereo not drawn) [Example 421, 4-{[1-(1,4-dioxan-2-ylcarbonyl)piperidin-4-yl]oxy}-N-(imidazo[1,2-a]pyridin-7-ylmethyl)benzamide]
4 | 1720 nM | 0.212 nM | 109 nM | O=C(NCc1ccn2ccnc2c1)c1ccc(OC2CCN(C(=O)CC3CCOCC3)CC2)cc1 [Example 422, N-(imidazo[1,2-a]pyridin-7-ylmethyl)-4-{[1-(tetrahydro-2H-pyran-4-ylacetyl)piperidin-4-yl]oxy}benzamide]
5 | 8260 nM | 0.338 nM | 187 nM | O=C(NCc1ccn2ccnc2c1)c1ccc(OC2CCN(C(=O)CN3CCOCC3)CC2)cc1 [Example 423, N-(imidazo[1,2-a]pyridin-7-ylmethyl)-4-{[1-(morpholin-4-ylacetyl)piperidin-4-yl]oxy}benzamide]
6 | 988 nM | 0.494 nM | 521 nM | CC(=O)N1CC(Oc2ccc(NC(=O)NCc3ccn4ccnc4c3)cc2)C1 [Example 424, 1-{4-[(1-acetylazetidin-3-yl)oxy]phenyl}-3-(imidazo[1,2-a]pyridin-7-ylmethyl)urea]
7 | 153 nM | 0.227 nM | 69 nM | CC(C)C(=O)N1CC(Oc2ccc(NC(=O)NCc3ccn4ccnc4c3)cc2)C1 [Example 425, 1-(imidazo[1,2-a]pyridin-7-ylmethyl)-3-(4-{[1-(2-methylpropanoyl)azetidin-3-yl]oxy}phenyl)urea]
8 | 25.6 nM | 0.169 nM | 6.4 nM | CC[C@H](C)C(=O)N1CC(Oc2ccc(NC(=O)NCc3ccn4ccnc4c3)cc2)C1 [Example 426, 1-(imidazo[1,2-a]pyridin-7-ylmethyl)-3-[4-({1-[(2S)-2-methylbutanoyl]azetidin-3-yl}oxy)phenyl]urea]
9 | 150 nM | 0.27 nM | 62.2 nM | O=C(NCc1ccn2ccnc2c1)Nc1ccc(OC2CN(C(=O)CC3CC3)C2)cc1 [Example 427, 1-(4-{[1-(cyclopropylacetyl)azetidin-3-yl]oxy}phenyl)-3-(imidazo[1,2-a]pyridin-7-ylmethyl)urea]
10 | 87.1 nM | 0.258 nM | 67.5 nM | O=C(NCc1ccn2ccnc2c1)Nc1ccc(OC2CN(C(=O)c3ccccc3)C2)cc1 [Example 428, 1-{4-[(1-benzoylazetidin-3-yl)oxy]phenyl}-3-(imidazo[1,2-a]pyridin-7-ylmethyl)urea]
11 | 129 nM | 0.396 nM | 18.6 nM | CC(C)OCC(=O)N1CC(Oc2ccc(NC(=O)NCc3ccn4ccnc4c3)cc2)C1 [Example 429, 1-(imidazo[1,2-a]pyridin-7-ylmethyl)-3-[4-({1-[(propan-2-yloxy)acetyl]azetidin-3-yl}oxy)phenyl]urea]
12 | 292 nM | 0.264 nM | 88.6 nM | CC(C)(O)C(=O)N1CC(Oc2ccc(NC(=O)NCc3ccn4ccnc4c3)cc2)C1 [Example 430, 1-(4-{[1-(2-hydroxy-2-methylpropanoyl)azetidin-3-yl]oxy}phenyl)-3-(imidazo[1,2-a]pyridin-7-ylmethyl)urea]
13 | 301 nM | 0.276 nM | 71.9 nM | O=C(NCc1ccn2ccnc2c1)Nc1ccc(OC2CN(C(=O)[C@H]3CCCO3)C2)cc1 [Example 431, 1-(imidazo[1,2-a]pyridin-7-ylmethyl)-3-[4-({1-[(2R)-tetrahydrofuran-2-ylcarbonyl]azetidin-3-yl}oxy)phenyl]urea]

Further lines, the compound ahead of its results:

Row | Compound | IC50 [1] | IC50 (NAMPT) | IC50 (PC3 cells)
14 | CC(C)(C)OC(=O)N1CC(c2ccc(C(=O)NCc3ccn4ccnc4c3)cc2)C1 [Example 402, tert-butyl 3-{4-[(imidazo[1,2-a]pyridin-7-ylmethyl)carbamoyl]phenyl}azetidine-1-carboxylate] | 54.8 nM | 0.327 nM | 6.71 nM
15 | CC(C)(C)OC(=O)N1CCC(O)(c2ccc(C(=O)NCc3ccn4ccnc4c3)s2)CC1 [Example 403, tert-butyl 4-hydroxy-4-{5-[(imidazo[1,2-a]pyridin-7-ylmethyl)carbamoyl]thiophen-2-yl}piperidine-1-carboxylate] | 1550 nM | 0.847 nM | 54.5 nM
16 | O=C(NCc1ccn2ccnc2c1)Nc1ncc(C(=O)N2CCCCC2)s1 [Example 404, 1-(imidazo[1,2-a]pyridin-7-ylmethyl)-3-[5-(piperidin-1-ylcarbonyl)-1,3-thiazol-2-yl]urea] | 2550 nM | 0.88 nM | 9410 nM
17 | CC[C@H](C)C(=O)N1CC(O)(c2ccc(C(=O)NCc3ccn4ccnc4c3)s2)C1 [Example 405, 5-{3-hydroxy-1-[(2S)-2-methylbutanoyl]azetidin-3-yl}-N-(imidazo[1,2-a]pyridin-7-ylmethyl)thiophene-2-carboxamide] | 78.4 nM | 0.214 nM | 22.1 nM
18 | O=C(NCc1ccn2ccnc2c1)c1ccc(C2(O)CN(C(=O)CC3CCOCC3)C2)s1 [Example 406, 5-[3-hydroxy-1-(tetrahydro-2H-pyran-4-ylacetyl)azetidin-3-yl]-N-(imidazo[1,2-a]pyridin-7-ylmethyl)thiophene-2-carboxamide] | 1140 nM | 0.505 nM | 347 nM
19 | CC(C)CCNC(=O)c1cnc(NC(=O)NCc2ccn3ccnc3c2)s1 [Example 407, 2-{[(imidazo[1,2-a]pyridin-7-ylmethyl)carbamoyl]amino}-N-(3-methylbutyl)-1,3-thiazole-5-carboxamide] | 220 nM | 0.659 nM | 1310 nM
20 | CC[C@H](C)C(=O)NC1(c2ccc(C(=O)NCc3ccn4ccnc4c3)s2)COC1 [Example 408, N-(imidazo[1,2-a]pyridin-7-ylmethyl)-5-(3-{[(2S)-2-methylbutanoyl]amino}oxetan-3-yl)thiophene-2-carboxamide] | 276 nM | 0.725 nM | 19.2 nM
21 | CC(C)CC(=O)N1CCC(n2nccc2C(=O)NCc2ccn3ccnc3c2)CC1 [Example 409] | > 10000 nM | 480 nM | ≥ 10000 nM
22 | CC(=O)N1CCC(Oc2ccc(C(=O)NCc3ccn4ccnc4c3)cc2)CC1 [Example 411, 4-[(1-acetylpiperidin-4-yl)oxy]-N-(imidazo[1,2-a]pyridin-7-ylmethyl)benzamide] | 1870 nM | 0.556 nM | 4720 nM
23 | CC(C)C(=O)N1CCC(Oc2ccc(C(=O)NCc3ccn4ccnc4c3)cc2)CC1 [Example 412, N-(imidazo[1,2-a]pyridin-7-ylmethyl)-4-{[1-(2-methylpropanoyl)piperidin-4-yl]oxy}benzamide] | 1250 nM | 0.424 nM | 978 nM
24 | CC[C@H](C)C(=O)N1CCC(Oc2ccc(C(=O)NCc3ccn4ccnc4c3)cc2)CC1 [Example 413, N-(imidazo[1,2-a]pyridin-7-ylmethyl)-4-({1-[(2S)-2-methylbutanoyl]piperidin-4-yl}oxy)benzamide] | 805 nM | 0.279 nM | 190 nM
25 | O=C(NCc1ccn2ccnc2c1)c1ccc(OC2CCN(C(=O)CC3CC3)CC2)cc1 [Example 414, 4-{[1-(cyclopropylacetyl)piperidin-4-yl]oxy}-N-(imidazo[1,2-a]pyridin-7-ylmethyl)benzamide] | 2630 nM | 0.307 nM | 853 nM
26 | O=C(NCc1ccn2ccnc2c1)c1ccc(OC2CCN(C(=O)c3ccccc3)CC2)cc1 [Example 415, 4-[(1-benzoylpiperidin-4-yl)oxy]-N-(imidazo[1,2-a]pyridin-7-ylmethyl)benzamide] | 1620 nM | 0.246 nM | 234 nM
27 | CC(C)OCC(=O)N1CCC(Oc2ccc(C(=O)NCc3ccn4ccnc4c3)cc2)CC1 [Example 416, N-(imidazo[1,2-a]pyridin-7-ylmethyl)-4-({1-[(propan-2-yloxy)acetyl]piperidin-4-yl}oxy)benzamide] | 2500 nM | 0.318 nM | 659 nM
28 | CC(C)(O)C(=O)N1CCC(Oc2ccc(C(=O)NCc3ccn4ccnc4c3)cc2)CC1 [Example 417, 4-{[1-(2-hydroxy-2-methylpropanoyl)piperidin-4-yl]oxy}-N-(imidazo[1,2-a]pyridin-7-ylmethyl)benzamide] | 6840 nM | 0.264 nM | 867 nM
29 | O=C(NCc1ccn2ccnc2c1)c1ccc(OC2CCN(C(=O)[C@H]3CCCO3)CC2)cc1 [Example 418, N-(imidazo[1,2-a]pyridin-7-ylmethyl)-4-({1-[(2R)-tetrahydrofuran-2-ylcarbonyl]piperidin-4-yl}oxy)benzamide] | 4750 nM | 0.233 nM | 866 nM
